Experimental data reported in patent US20220315621A1, “COMPOSITIONS AND METHODS FOR TREATING CNS DISORDERS” (priority 2017, published 2022).
Read-outs that look alike come from different tables or passages of the source.

Target: TBPS binding
Experiment: Steroid inhibition of TBPS binding
[1] = Table II-2, read-out: TBPS IC50 (μm)

Compound Cc1nnn(CC(=O)[C@H]2CC[C@H]3[C@@H]4CC[C@H]5CC[C@](C)(O)CC[C@]5(C)[C@H]4CC[C@]23C)n1 [II-C11, 1-((1S,3aS,3bR,5aS,8S,10aS,10bS,12aS)-8-hydroxy-8,10a,12a-trimethyloctadecahydrocyclohepta[a]cyclopenta[f]naphthalen-1-yl)-2-(5-methyl-2H-tetrazol-2-yl)ethan-1-one] has an IC50 [1] of 10 to 100 nM.

C[C@@]1(O)CC[C@@H]2CC[C@@H]3[C@H](CC[C@]4(C)[C@@H](C(=O)Cn5cc(C#N)cn5)CC[C@@H]34)[C@@]2(C)CC1 [II-C8, 1-(2-((1S,3aS,3bR,5aS,8R,10aS,10bS,12aS)-8-hydroxy-8,10a,12a-trimethyloctadecahydrocyclohepta[a]cyclopenta[f]naphthalen-1-yl)-2-oxoethyl)-1H-pyrazole-4-carbonitrile] was tested, and the IC50 [1] was 100 to 1000 nM.

In the case of Cc1nnn(CC(=O)[C@H]2CC[C@H]3[C@@H]4CC[C@@H]5CC[C@](C)(O)CC[C@@H]5[C@H]4CC[C@]23C)n1 [II-F12, 1-((1S,3aS,3bR,5aR,8S,10aS,10bR,12aS)-8-hydroxy-8,12a-dimethyloctadecahydrocyclohepta[a]cyclopenta[f]naphthalen-1-yl)-2-(5-methyl-2H-tetrazol-2-yl)ethan-1-one], the IC50 [1] is reported as 100 to 1000 nM.

For CC(=O)[C@H]1CC[C@H]2[C@@H]3CC[C@H]4C[C@H](O)CCC[C@]4(C)[C@H]3CC[C@]12C [II-B5, 1-((1S,3aS,3bR,5aS,7R,10aS,10bS,12aS)-7-hydroxy-10a,12a-dimethyloctadecahydrocyclohepta[a]cyclopenta[f]naphthalen-1-yl)ethan-1-one], the IC50 [1] was 100 to 1000 nM.

With CC(=O)[C@H]1CC[C@H]2[C@@H]3CC[C@@H]4CCC(=O)CC[C@@H]4[C@H]3CC[C@]12C [II-E7a, (1S,3aS,3bR,5aR,10aS,10bR,12aS)-1-acetyl-12a-methylhexadecahydrocyclohepta[a]cyclopenta[f]naphthalen-8(1H)-one] the IC50 [1] was 1000 to 10000 nM.

In the case of C[C@]1(O)CC[C@H]2CC[C@@H]3[C@H](CC[C@]4(C)[C@@H](C(=O)Cn5cc(C#N)cn5)CC[C@@H]34)[C@H]2CC1 [II-F11, 1-(2-((1S,3aS,3bR,5aR,8S,10aS,10bR,12aS)-8-hydroxy-8,12a-dimethyloctadecahydrocyclohepta[a]cyclopenta[f]naphthalen-1-yl)-2-oxoethyl)-1H-pyrazole-4-carbonitrile], the IC50 [1] is reported as 100 to 1000 nM.

Work on CC(=O)[C@H]1CC[C@H]2[C@@H]3CC[C@@H]4CC[C@](C)(O)CC[C@@H]4[C@H]3CC[C@]12C [II-F8, 1-((1S,3aS,3bR,5aR,8S,10aS,10bR,12aS)-8-hydroxy-8,12a-dimethyloctadecahydrocyclohepta[a]cyclopenta[f]naphthalen-1-yl)ethan-1-one] yielded an IC50 [1] of 100 to 1000 nM.

CC(=O)[C@H]1CC[C@H]2[C@@H]3CC[C@@H]4C[C@](C)(O)C[C@@H]4[C@H]3CC[C@]12C [II-G8, 1-((1S,3aS,3bR,5aR,7S,8aS,8bR,10aS)-7-hydroxy-7,10a-dimethylhexadecahydrodicyclopenta[a,f]naphthalen-1-yl)ethan-1-one] was tested, and the IC50 [1] was 100 to 1000 nM.

CC(=O)[C@H]1CC[C@H]2[C@@H]3CC=C4CC[C@@](C)(O)CC[C@]4(C)[C@H]3CC[C@]12C [II-C2b, 1-((1S,3aS,3bS,8R,10aR,10bS,12aS)-8-hydroxy-8,10a,12a-trimethyl-1,2,3,3a,3b,4,6,7,8,9,10,10a,10b,11,12,12a-hexadecahydrocyclohepta[a]cyclopenta[f]naphthalen-1-yl)ethan-1-one] gave an IC50 [1] of 1000 to 10000 nM.

Cc1nnn(CC(=O)[C@H]2CC[C@H]3[C@@H]4CC=C5CC[C@](C)(O)CC[C@]5(C)[C@H]4CC[C@]23C)n1 [II-F6, 1-((1S,3aS,3bS,8S,10aR,10bS,12aS)-8-hydroxy-8,10a,12a-trimethyl-1,2,3,3a,3b,4,6,7,8,9,10,10a,10b,11,12,12a-hexadecahydrocyclohepta[a]cyclopenta[f]naphthalen-1-yl)-2-(5-methyl-2H-tetrazol-2-yl)ethan-1-one] gave an IC50 [1] of 10 to 100 nM.

For Cc1nnnn1CC(=O)[C@H]1CC[C@H]2[C@@H]3CC[C@H]4CC[C@](C)(O)CC[C@]4(C)[C@H]3CC[C@]12C [II-C10, 1-((1S,3aS,3bR,5aS,8S,10aS,10bS,12aS)-8-hydroxy-8,10a,12a-trimethyloctadecahydrocyclohepta[a]cyclopenta[f]naphthalen-1-yl)-2-(5-methyl-1H-tetrazol-1-yl)ethan-1-one], the IC50 [1] was 100 to 1000 nM.

With Cc1nnnn1CC(=O)[C@H]1CC[C@H]2[C@@H]3CC=C4CC[C@](C)(O)CC[C@]4(C)[C@H]3CC[C@]12C [II-F7, 1-((1S,3aS,3bS,8S,10aR,10bS,12aS)-8-hydroxy-8,10a,12a-trimethyl-1,2,3,3a,3b,4,6,7,8,9,10,10a,10b,11,12,12a-hexadecahydrocyclohepta[a]cyclopenta[f]naphthalen-1-yl)-2-(5-methyl-1H-tetrazol-1-yl)ethan-1-one] the IC50 [1] was 10 to 100 nM.

C[C@@]1(O)CC[C@H]2[C@@H](C[C@@H]3[C@@H]2CC[C@]2(C)[C@@H](C(=O)Cn4cc(C#N)cn4)CC[C@@H]32)C1 [IV-B9, 1-(2-((3S,3aS,5aR,5bS,8R,9aS,10aR,10bS)-8-hydroxy-3a,8-dimethylhexadecahydrocyclopenta[a]fluoren-3-yl)-2-oxoethyl)-1H-pyrazole-4-carbonitrile] was tested, and the IC50 (Table IV-2, read-out: TBPS IC50) was 10 to 100 nM.

For C[C@]1(O)C[C@H]2CC[C@@H]3[C@H](CC[C@]4(C)[C@@H](C(=O)Cn5cc(C#N)cn5)CC[C@@H]34)[C@H]2C1 [II-G10], the IC50 [1] was 100 to 1000 nM.

Cc1nnnn1CC(=O)[C@H]1CC[C@H]2[C@@H]3CC[C@@H]4CC[C@](C)(O)CC[C@@H]4[C@H]3CC[C@]12C [II-F13, 1-((1S,3aS,3bR,5aR,8S,10aS,10bR,12aS)-8-hydroxy-8,12a-dimethyloctadecahydrocyclohepta[a]cyclopenta[f]naphthalen-1-yl)-2-(5-methyl-1H-tetrazol-1-yl)ethan-1-one] showed an IC50 [1] of 1000 to 10000 nM.

CC(=O)[C@H]1CC[C@H]2[C@@H]3CC[C@@H]4CC(=O)CCC[C@@H]4[C@H]3CC[C@]12C [II-E7b, (1 S,3aS,3bR,5aR,10aS,10bR,12aS)-1-acetyl-12a-methylhexadecahydrocyclohepta[a]cyclopenta[f]naphthalen-7(1H)-one] gave an IC50 [1] of 1000 to 10000 nM.

With CC(=O)[C@H]1CC[C@H]2[C@@H]3CC[C@@H]4[C@H](CC[C@@]4(C)O)[C@H]3CC[C@]12C [II-H11, 1-((1S,3aS,3bR,5aR,6R,8aR,8bS,10aS)-6-hydroxy-6,10a-dimethylhexadecahydrodicyclopenta[a,f]naphthalen-1-yl)ethan-1-one] the IC50 [1] was 1000 to 10000 nM.

In the case of CC(=O)[C@H]1CC[C@H]2[C@@H]3CCC[C@H]4C[C@](C)(O)CC[C@@H]4[C@H]3CC[C@]12C [III-A13, 1-((1S,3aS,3bR,6aS,8R,10aS,10bR,12aS)-8-hydroxy-8,12a-dimethyloctadecahydrobenzo[3,4]cyclohepta[1,2-e]inden-1-yl)ethan-1-one], the IC50 (Table III-1, read-out: TBPS IC50) is reported as 1000 to 10000 nM.

C[C@]1(O)CCC[C@@]2(C)[C@@H](CC[C@@H]3[C@@H]2CC[C@]2(C)[C@@H](C(=O)Cn4cc(C#N)cn4)CC[C@@H]32)C1 [II-D5b, 1-(2-((1S,3aS,3bR,5aS,7S,10aS,10bS,12aS)-7-hydroxy-7,10a,12a-trimethyloctadecahydrocyclohepta[a]cyclopenta[f]naphthalen-1-yl)-2-oxoethyl)-1H-pyrazole-4-carbonitrile] gave an IC50 [1] of 100 to 1000 nM.
